Like-named read-outs stand apart in the source and are kept apart here.
Columns and labels:
[1] = test system: K1 strain, a drug resistant strain of Plasmodium falciparum; assay: In vitro antimalarial assay (p-LDH, Malstat), K1 strain; type: cell-based; details: read-out: Antimalarial activity (IC50 value), Strain K1
Source text: (§1) For the evaluation of the antimalarial activity of the compound of the present invention, K1 strain, a drug resistant strain of Plasmodium falciparum, and FCR3 strain, a drug sensitive strain thereof, which were generous gift from Professor Kiyoshi Kita of the Graduate School of Medicine and Faculty of Medicine, the University of Tokyo, were used to measure the in vitro antimalarial activity of the compound against those Plasmodium species according to the method established by Otoguro et al. (Otoguro, K., Kohana, A., Manabe, C., Ishiyama, A., Ui, H., Shiomi, K., Yamada, H. & Omura, S.: Potent antimalarial activity of polyether antibiotic, X-206. J. Antibiot., 54: 658-663, (2001)).
(§2) The parasites were grown based on a slightly modified method from the original method reported by Trager and Jensen (Trager, W. and Jensen, J.: Human malaria parasites in continuous culture, Science, 193: 673-677, (1976)), and those which were maintained and sub-cultured by the method were used. More specifically, in a culture dish, erythrocytes infected with the protozoa, which had been sub-cultured using a RPMI 1640 medium to which 10% human plasma had been added and fresh human erythrocytes, were diluted (hematocrit value: 2 to 5%, parasitaemia: 0.25 to 1%), and were cultured at 37° C. in a mixed gas of 3% O2-4% CO2-93% N2, and continuously cultured while changing the medium and adding fresh erythrocytes at 2- or 3-day intervals.
(§3) A drug susceptibility test was performed by modifying the method established by Desjardins et al. (Desjardins, R. E., Canfield, C. J., Haynes, D. E. and Chulay, J. D.: Quantitative assessment of antimalarial activity in vitro by a semiautomated microdilution technique. Antimicrob. Agents Chemother., 16: 710-718 (1979)). More specifically, 190 μL of a suspension of protozoa which had been precultured (hematocrit value: 2%, parasitaemia: 0.5 or 1%) and 10 μL of a solution of a test compound (5% DMSO solution) serially diluted so that the final concentration was 12.5 to 0.0001 μM were put in each well of a 96-well plate, and after mixing, the same was cultured for 72 hours in the above mixed gas.
(§4) For the measurement of the growth of protozoa, the method established by Makler (Makler, M. T., Rise, J. M., Williams, J. A., Bancroft, J. E., Piper, R. C., Gibbins, B. L. and Hinrichs, D. J.: Parasite lactate dehydrogenase as an Assay for Plasmodium falciparum drug sensitivity, Am. J. Med. Hyg., 48: 739-741 (1993)) was modified to colorimetrically determine parasite lactate dehydrogenase (p-LDH) using Malstat reagent (Flow Inc., USA).
(§5) More specifically, 72 hours after the culture, the 96-well plate was directly frozen at −20° C. for 18 hours and melted at 37° C. to hemolyze the protozoan-infected erythrocytes and destroy the protozoa to prepare a crude enzyme solution. 100 μL of Malstat reagent and 20 μL of the crude enzyme solution were added to and mixed in each well of another 96-well plate, and after reacting for 15 minutes at room temperature, 20 μL of a nitroblue tetrazolium 2 mg/mL phenazine ethosulfate 0.1 mg/mL=1:1 solution was added to the respective wells, and reaction was performed in dark conditions at room temperature for 2 hours.
(§6) The absorbance of the blue formazan product formed by the reaction was measured at a measurement wavelength of 655 nm by using a microplate reader (Labsystems, Finland) to colorimetrically determine the growth of the protozoa. The 50% growth inhibitory concentration for the protozoa of the compound (IC50 value) was determined based on the concentration-response curve of the compound.

[2] = test system: FCR3 strain, a drug sensitive strain of Plasmodium falciparum; assay: In vitro antimalarial assay (p-LDH, Malstat), FCR3 strain; type: cell-based; details: read-out: Antimalarial activity (IC50 value), Strain FCR3
Source text: as §1, §2, §3, §4, §5, §6

[3] = P. falciparum K1 (drug resistant), 72 h culture, p-LDH readout
[4] = P. falciparum FCR3 (drug sensitive), 72 h culture, p-LDH readout

SMILES | IC50 [1, 3] | IC50 [2, 4] | IC50 ([1]; K1, 72 h) | IC50 ([2]; FCR3, 72 h)
CCCCc1cccc(Nc2nc(Nc3ccn4ccnc4c3)cc(N3CCC(C)(C)C3)n2)n1 [Example 168, N2-(6-butylpyridin-2-yl)-6-(3,3-dimethylpyrrolidin-1-yl)-N4-(imidazo[l,2-a]pyridin-7-yl) pyrimidine-2,4-diamine] | 100 to 1000 nM | < 100 nM |  | 
Cc1cc(C)nc(Nc2nc(Nc3ccn4ccnc4c3)cc(N3CC(C)(C)C3)n2)c1 [Example 177, 6-(3,3-dimethylazetidin-1-yl)-N2-(4,6-dimethylpyridin-2-yl)-N4-(imidazo[1,2-a]pyridin-7-yl)pyrimidine-2,4-diamine] | < 100 nM | < 100 nM |  | 
COCCOc1ccc(Nc2nc(Nc3ccn4ccnc4c3)cc(N3CCOCC3)n2)cn1 [Example 66, N4-(imidazo[1,2-a]pyridin-7-yl)-N2-(6-(2-methoxyethoxy)-pyridin-3-yl)-6-morpholino-pyrimidine-2,4-diamine] | 100 to 1000 nM | 100 to 1000 nM |  | 
Cc1cccc(Nc2nc(Nc3ccn4ccnc4c3)cc(-n3ccnc3)n2)n1 [Example 41, N4-(imidazo[1,2-a]pyridin-7-yl)-6-(1H-imidazol-1-yl)-N2-(6-methylpyridin-2-yl)pyrimidine-2,4-diamine] | 100 to 1000 nM | < 100 nM |  | 
Cc1ccnc(Nc2nc(N)cc(Nc3ccn4ccnc4c3)n2)c1 [Example 50, N4-(imidazo[1,2-a]pyridin-7-yl)-N2-(4-methylpyridin-2-yl) pyrimidine-2,4,6-triamine] | < 100 nM | < 100 nM |  | 
COc1ccc(Nc2nc(Nc3ccn4ccnc4c3)cc(N3CCOCC3)n2)cn1 [Example 1, N4-(Imidazo[1,2-a]pyridin-7-yl)-N2-(6-methoxypyridin-3-yl)-6-morpholinopyrimidine-2,4-diamine] | < 100 nM | < 100 nM |  | 
Cc1cc(C)nc(Nc2nc(Nc3ccn4ccnc4c3)cc(N3CCOCC3)n2)c1 [Example 2, N2-(4,6-dimethylpyridin-2-yl)-N4-(imidazo[1,2-a]pyridin-7-yl)-6-morpholinopyrimidine-2,4-diamine] | < 100 nM | < 100 nM |  | 
Cc1cc(C)nc(Nc2nc(Nc3ccn4ccnc4c3)cc(N3CCC(N4CCCC4)C3)n2)c1 (stereo not drawn) [Example 148, 6-([1,3′-bipyrrolidin]-1′-yl)-N2-(4,6-dimethylpyridin-2-yl)-N4-(imidazo[1,2-a]pyridin-7-yl)pyrimidine-2,4-diamine] | < 100 nM | < 100 nM |  | 
Cc1cc(C)nc(Nc2nc(Nc3ccn4ccnc4c3)cc(NN3CCCCC3)n2)c1 [Example 198, N2-(4,6-dimethylpyridin-2-yl)-N4-(imidazo[1,2-a]pyridin-7-yl)-N6-(piperidin-1-yl)pyrimidine-2,4,6-triamine] | 100 to 1000 nM | < 100 nM |  | 
CCc1ccnc(Nc2nc(Nc3ccn4ccnc4c3)cc(N3CCC(CO)CC3)n2)c1 [Example 119, (1-(2-((4-ethylpyridin-2-yl)amino)-6-(imidazo[1,2-a]pyridin-7-ylamino)pyrimidin-4-yl)piperidin-4-yl)methanol] | < 100 nM | < 100 nM |  | 
CCCc1ccnc(Nc2nc(Nc3ccn4ccnc4c3)cc(N3CCOCC3)n2)c1 [Example 74, N4-(imidazo[1,2-a]pyridin-7-yl)-6-morpholino-N2-(4-propylpyridin-2-yl)pyrimidine-2,4-diamine] | 100 to 1000 nM | < 100 nM |  | 
c1cc(Nc2nc(Nc3ccn4ccnc4c3)cc(N3CCCC3)n2)nc(OCCN2CCOCC2)c1 [Example 154, N4-(imidazo[1,2-a]pyridin-7-yl)-N2-[6-(2-morpholinoethoxy)pyridin-2-yl]-6-(pyrrolidin-1-yl)pyrimidine-2,4-diamine] | < 100 nM | < 100 nM |  | 
c1cc(CCN2CCCC2)nc(Nc2nc(Nc3ccn4ccnc4c3)cc(N3CCCC3)n2)c1 [Example 163, N4-(imidazo[1,2-a]pyridin-7-yl)-6-(pyrrolidin-1-yl)-N2-{6-[2-(pyrrolidin-1-yl)ethyl]pyridin-2-yl}pyrimidine-2,4-diamine triformate] |  |  | 100 to 1000 nM | < 100 nM
Cc1cc(C)nc(Nc2nc(N)cc(Nc3ccn4ccnc4c3)n2)c1 [Example 58, N2-(4,6-dimethylpyridin-2-yl)-N4-(imidazo[1,2-a]pyridin-7-yl)pyrimidine-2,4,6-triamine] | < 100 nM | < 100 nM |  | 
CN(C)CCOc1ccc(Nc2nc(Nc3ccn4ccnc4c3)cc(N3CCOCC3)n2)cn1 [Example 61, N2-(6-(2-(dimethylamino)ethoxy)pyridin-3-yl)-N4-(imidazo[1,2-a]pyridin-7-yl)-6-morpholino-pyrimidine-2,4-diamine] | 1000 to 10000 nM | 100 to 1000 nM |  | 
Cc1cc(C)nc(Nc2nc(Nc3ccn4ccnc4c3)cc(N3C[C@@H]4OCCO[C@@H]4C3)n2)c1 [Example 194, N2-(4,6-dimethylpyridin-2-yl)-N4-(imidazo[1,2-a]pyridin-7-yl)-6-[(4aR,7aS)-tetrahydro-2H-[1,4]dioxino[2,3-c]pyrrol-6(3H)-yl]pyrimidine-2,4-diamine] | < 100 nM | < 100 nM |  | 

Now from value to compound, other results behind:

IC50 [1, 3] | IC50 [2, 4] | SMILES | IC50 ([1]; K1, 72 h) | IC50 ([2]; FCR3, 72 h)
< 100 nM | < 100 nM | Cc1cccc(Nc2nc(Nc3ccn4ccnc4c3)cc(N3CCOCC3)n2)n1 [Example 10, N4-(Imidazo[1,2-a]pyridin-7-yl)-N2-(6-methylpyridin-2-yl)-6-morpholinopyrimidine-2,4-diamine] |  | 
1000 to 10000 nM | 100 to 1000 nM | Fc1cccc(Nc2nc(Nc3ccn4ccnc4c3)cc(N3CCOCC3)n2)n1 [Example 14, N2-(6-Fluoropyridin-2-yl)-N4-(imidazo[1,2-a]pyridin-7-yl)-6-morpholinopyrimidine-2,4-diamine] |  | 
1000 to 10000 nM | 1000 to 10000 nM | Cc1ccc(Nc2nc(Nc3ccn4ccnc4c3)cc(N3CCN(C)[C@@H](C)C3)n2)nc1 [Example 37, (S)-6-(3,4-dimethylpiperazin-1-yl)-N4-(imidazo[1,2-a]pyridin-7-yl)-N2-(5-methylpyridin-2-yl)pyrimidine-2,4-diamine] |  | 
< 100 nM | < 100 nM | Cc1ccnc(Nc2nc(Nc3ccn4ccnc4c3)cc(N3CCOCC3)n2)c1 [Example 17, N4-(Imidazo[1,2-a]pyridin-7-yl)-N2-(4-methylpyridin-2-yl)-6-morpholinopyrimidine-2,4-diamine] |  | 
100 to 1000 nM | < 100 nM | CCOc1cccc(Nc2nc(Nc3ccn4ccnc4c3)cc(N3CCCC3)n2)n1 [Example 150, N2-(6-ethoxypyridin-2-yl)-N4-(imidazo[1,2-a]pyridin-7-yl)-6-(pyrrolidin-1-yl)pyrimidine-2,4-diamine] |  | 
< 100 nM | < 100 nM | Cc1ccc(Nc2nc(Nc3ccn4ccnc4c3)cc(N3CCCCC3)n2)nc1 [Example 26, N4-(imidazo[1,2-a]pyridin-7-yl)-N2-(5-methylpyridin-2-yl)-6-(piperidin-1-yl)pyrimidine-2,4-diamine] |  | 
100 to 1000 nM | < 100 nM | CCCCc1cccc(Nc2nc(Nc3ccn4ccnc4c3)cc(N3CCC3)n2)n1 [Example 167, 6-(azetidin-1-yl)-N2-(6-butylpyridin-2-yl)-N4-(imidazo[1,2-a]pyridin-7-yl)pyrimidine-2,4-diamine] |  | 
100 to 1000 nM | 100 to 1000 nM | CC(C)(C)c1cccc(Nc2nc(Nc3ccn4ccnc4c3)cc(N3CCCCC3)n2)n1 [Example 122, N2-(6-(tert-butyl)pyridin-2-yl)-N4-(imidazo[1,2-a]pyridin-7-yl)-6-(piperidin-1-yl)pyrimidine-2,4-diamine] |  | 

Reference: patent publication US10538521B2, “Pyrimidine derivative having antimalarial activity” (CARNA BIOSCIENCES, INC., priority 2016, dated 2020)
